# Source: patent publication US20260240832A1, “USE OF NITROXOLINE COMPOUND IN ENHANCING EFFECT OF ANTIBACTERIAL AGENT” (Jiangsu Yahong Meditech Co., Ltd., priority 2022, published 2026)
# Where two headings read alike, the source gives them in different places.
# How the values were obtained:
# Format in all cases: cell-based
# [1] = test system: carbapenem-resistant Acinetobacter baumannii; test: Chessboard microbroth dilution MIC/FIC, compound 1 in combination with meropenem; conditions: for MIC: Acinetobacter baumannii; for Compound 1 MIC in combination: with meropenem; for Meropenem MIC in combination: with compound 1
# Source text: This experiment is designed to determine the minimum inhibitory concentration (MIC) of compound 1 in combination with meropenem against Acinetobacter baumannii (a strain resistant to carbapenem antibiotics) and to calculate the fractional inhibitory concentration (FIC) index.
# Test bacteria: A total of 9 strains of Acinetobacter baumannii, all of which are resistant to carbapenem antibiotics (e.g., meropenem), are clinically isolated strains, and are provided by Shanghai Junji Medical Laboratory Co., Ltd.
# According to the recommendation of the Clinical and Laboratory Standards Institute (CLSI), the microbroth dilution method designed by the chessboard method was used to determine the minimum inhibitory concentration (MIC) of compound 1 in combination with meropenem against the above strains, and the fractional inhibitory concentration (FIC) index was calculated.
# Compound 1 was dissolved in dimethyl sulfoxide to obtain a stock solution I with a concentration of 1280 mg/L. The stock solution I was diluted to 512 mg/L with sterile water to obtain a gradient dilution first tube solution I. The gradient dilution first tube solution I was subjected to 1:1 gradient dilution with sterile water to obtain a working solution I with a gradient range of 512 to 0.25 mg/L.
# (§1) Meropenem was dissolved in sterile water to obtain a stock solution II with a concentration of 5120 mg/L. The stock solution II was diluted to 1024 mg/L with sterile water to obtain a gradient dilution first tube solution II. The gradient dilution first tube solution II was subjected to 1:1 gradient dilution with sterile water to obtain a working solution II with a gradient range of 1024 to 0.5 mg/L.
# 50 μL of solution was taken from each tube of working solution I, and added to the drug sensitivity plate row by row starting from the second well of each row (in each row, the concentration of compound 1 increased from the second well to the last well). 50 μL of solution was taken from each tube of working solution II, and added to the drug sensitivity plate column by column starting from the second well of each column (in each column, the concentration of meropenem increased from the second well to the last well). As a result, a chessboard cross with different concentrations of the two drugs was formed (wherein, there was neither compound 1 nor meropenem in the intersection well of the first row and the first column; the wells of the first row except the intersection well only contained compound 1, and the wells of the first column except the intersection well only contained meropenem; except for the above wells, the remaining wells contained […] and meropenem).
# According to the above process, the volume of the drug solution in each well containing only one drug of the drug sensitivity plate was 50 μL, thus 50 μL of sterile water was added to each well. 100 μL of sterile water was added to the intersection well of the first row and the first column. After that, 100 μL of bacterial solution (formulated according to step (3)) was added to all the wells of the drug sensitivity plate and mixed.
# (§2) (2) The culture medium of the bacterial solution: Cation-Adjusted Mueller-Hinton Broth (CAMHB), a product of BBL, USA, batch number 9015952.
# (§3) (3) Formulation method of bacterial solution: According to the direct colony suspension method, the test bacteria cultured overnight were prepared into a 0.5 McFarland turbidity tube using physiological saline. Then, the resulting solution was dilute 100 times with the above culture medium. 100 μL of the resulting bacterial solution was mixed well with the solution (100 μL) in each well of the drug sensitivity plate, and the final inoculation amount was 10^5 CFU/mL.
# (§4) (4) Culture conditions: Culturing at 35±2° C. for 20 hours in air.
# (1) The experimental results were determined according to the standard of CLSI 2019 M100 29th edition. […]
# [2] = test system: drug-resistant Escherichia coli 1864; test: MIC of antibiotics against drug-resistant Escherichia coli II (resistance profile of the strain); conditions: drug-resistant Escherichia coli 1864; read-out: MIC
# Source text: 1 strain of drug-resistant Escherichia coli II, namely drug-resistant Escherichia coli 1864, is provided by the School of Pharmacy of Fudan University. This strain is resistant to fluoroquinolone antibiotics (such as levofloxacin), non-fluoroquinolone antibiotics (such as nalidixic acid, nemofloxacin), aminoglycoside antibiotics (such as gentamicin), glycopeptide antibiotics (such as vancomycin) and carbapenem antibiotics (such as meropenem).
# [3] = test system: drug-resistant Escherichia coli I (a strain resistant to carbapenem antibiotics); test: Chessboard microbroth dilution MIC/FIC, compound A in combination with meropenem; conditions: for MIC: Escherichia coli, read-out: Meropenem MIC alone; for Meropenem MIC in combination: with compound A
# Source text: This experiment is designed to determine the minimum inhibitory concentration (MIC) of compound A in combination with meropenem against drug-resistant Escherichia coli I (a strain resistant to carbapenem antibiotics) and drug-resistant Escherichia coli II (a strain resistant to fluoroquinolone antibiotics, non-fluoroquinolone antibiotics, aminoglycoside antibiotics, glycopeptide antibiotics and carbapenem antibiotics), and to calculate the fractional inhibitory concentration (FIC) index.
# 3 strains of drug-resistant Escherichia coli I, namely drug-resistant Escherichia coli 18-W09-093, drug-resistant Escherichia coli 18-W37-025, and drug-resistant Escherichia coli 18-W37-032, are provided by Shanghai Junji Medical Laboratory Co., Ltd. These 3 strains are all resistant to carbapenem antibiotics (e.g., meropenem).
# According to the recommendation of the Clinical and Laboratory Standards Institute (CLSI), the microbroth dilution method designed by the chessboard method was used to determine the minimum inhibitory concentration (MIC) of compound A in combination with meropenem against the above strains, and the fractional inhibitory concentration (FIC) index was calculated.
# Compound A was dissolved in dimethyl sulfoxide to obtain a stock solution I with a concentration of 1280 mg/L. The stock solution I was diluted to 512 mg/L with sterile water to obtain a gradient dilution first tube solution I. The gradient dilution first tube solution I was subjected to 1:1 gradient dilution with sterile water to obtain a working solution I with a gradient range of 512 to 0.25 mg/L.
# as §1
# According to the method in Example 1, a drug sensitive plate was prepared with working solution I and working solution II, and the specific process will not be repeated here.
# as §2, §3, §4
# (1) The experimental results were determined according to the standard of CLSI 2019 M100 29th edition.
# wherein: FIC≤0.5 indicates synergistic effect; 0.5<FIC≤1.0 indicates additive effect; 1<FIC≤2.0 indicates irrelevant effect; and FIC>2 indicates antagonistic effect.
# [4] = strain 18-J11-001, compound 1 + meropenem
# [5] = strain 18-J11-002, compound 1 + meropenem
# [6] = strain 18-J11-034, compound 1 + meropenem
# [7] = strain 18-J11-097, compound 1 + meropenem
# [8] = strain 18-J15-030, compound 1 + meropenem
# [9] = strain 18-J21-095, compound 1 + meropenem
# [10] = strain 18-J24-015, compound 1 + meropenem
# [11] = strain 18-J40-021, compound 1 + meropenem
# [12] = strain 18-J51-052, compound 1 + meropenem
structure (smiles),measurement,setting,value
"O=[N+]([O-])c1c(Br)c(Cl)c2cccnc2c1O [Compound 1, 6-bromo-5-chloro-7-nitroquinolin-8-ol]",MIC,"[1]; strain 18-J11-001, read-out: Compound 1 MIC alone",8 mg/L
same,MIC,"[1]; strain 18-J11-002, read-out: Compound 1 MIC alone",4 mg/L
same,MIC,"[1]; strain 18-J11-034, read-out: Compound 1 MIC alone",4 mg/L
same,MIC,"[1]; strain 18-J11-097, read-out: Compound 1 MIC alone",8 mg/L
same,MIC,"[1]; strain 18-J15-030, read-out: Compound 1 MIC alone",16 mg/L
same,MIC,"[1]; strain 18-J21-095, read-out: Compound 1 MIC alone",8 mg/L
same,MIC,"[1]; strain 18-J24-015, read-out: Compound 1 MIC alone",8 mg/L
same,MIC,"[1]; strain 18-J40-021, read-out: Compound 1 MIC alone",8 mg/L
same,MIC,"[1]; strain 18-J51-052, read-out: Compound 1 MIC alone",4 mg/L
same,change of the MIC of meropenem by the combination,[1]; compound 1 + meropenem,significantly reduce
same,effect of the combination (summary of Table 1),"[1]; compound 1 + meropenem, strains resistant to carbapenem antibiotics",additive effect (0.5<FIC≤1.0 indicates additive effect)
same,FIC index,[1]; [4],0.750
same,Results,[1]; [4],Additive
same,Compound 1 MIC in combination,[1]; strain 18-J11-001,4 mg/L
same,FIC index,[1]; [5],0.750
same,Results,[1]; [5],Additive
same,Compound 1 MIC in combination,[1]; strain 18-J11-002,2 mg/L
same,FIC index,[1]; [6],0.750
same,Results,[1]; [6],Additive
same,Compound 1 MIC in combination,[1]; strain 18-J11-034,2 mg/L
same,FIC index,[1]; [7],0.750
same,Results,[1]; [7],Additive
same,Compound 1 MIC in combination,[1]; strain 18-J11-097,4 mg/L
same,FIC index,[1]; [8],0.625
same,Results,[1]; [8],Additive
same,Compound 1 MIC in combination,[1]; strain 18-J15-030,8 mg/L
same,FIC index,[1]; [9],0.750
same,Results,[1]; [9],Additive
same,Compound 1 MIC in combination,[1]; strain 18-J21-095,4 mg/L
same,FIC index,[1]; [10],0.750
same,Results,[1]; [10],Additive
same,Compound 1 MIC in combination,[1]; strain 18-J24-015,2 mg/L
same,FIC index,[1]; [11],0.750
same,Results,[1]; [11],Additive
same,Compound 1 MIC in combination,[1]; strain 18-J40-021,4 mg/L
same,FIC index,[1]; [12],0.625
same,Results,[1]; [12],Additive
same,Compound 1 MIC in combination,[1]; strain 18-J51-052,2 mg/L
"C[C@@H](O)[C@H]1C(=O)N2C(C(=O)O)=C(S[C@@H]3CN[C@H](C(=O)N(C)C)C3)[C@H](C)[C@H]12 [Meropenem, reference compound]",MIC,"[1]; strain 18-J11-001, read-out: Meropenem MIC alone",32 mg/L
same,MIC,"[1]; strain 18-J11-002, read-out: Meropenem MIC alone",64 mg/L
same,MIC,"[1]; strain 18-J11-034, read-out: Meropenem MIC alone",64 mg/L
same,MIC,"[1]; strain 18-J11-097, read-out: Meropenem MIC alone",64 mg/L
same,MIC,"[1]; strain 18-J15-030, read-out: Meropenem MIC alone",64 mg/L
same,MIC,"[1]; strain 18-J21-095, read-out: Meropenem MIC alone",64 mg/L
same,MIC,"[1]; strain 18-J24-015, read-out: Meropenem MIC alone",64 mg/L
same,MIC,"[1]; strain 18-J40-021, read-out: Meropenem MIC alone",64 mg/L
same,MIC,"[1]; strain 18-J51-052, read-out: Meropenem MIC alone",32 mg/L
same,Meropenem MIC in combination,[1]; strain 18-J11-001,8 mg/L
same,Meropenem MIC in combination,[1]; strain 18-J11-002,16 mg/L
same,Meropenem MIC in combination,[1]; strain 18-J11-034,16 mg/L
same,Meropenem MIC in combination,[1]; strain 18-J11-097,16 mg/L
same,Meropenem MIC in combination,[1]; strain 18-J15-030,8 mg/L
same,Meropenem MIC in combination,[1]; strain 18-J21-095,16 mg/L
same,Meropenem MIC in combination,[1]; strain 18-J24-015,32 mg/L
same,Meropenem MIC in combination,[1]; strain 18-J40-021,16 mg/L
same,Meropenem MIC in combination,[1]; strain 18-J51-052,4 mg/L
same,MIC,[2],> 64 mg/L
same,MIC,[3]; strain 18-W09-093,256 mg/L
same,MIC,[3]; strain 18-W37-025,128 mg/L
same,MIC,[3]; strain 18-W37-032,128 mg/L
same,Meropenem MIC in combination,[3]; strain 18-W09-093,2 mg/L
same,Meropenem MIC in combination,[3]; strain 18-W37-025,1 mg/L
same,Meropenem MIC in combination,[3]; strain 18-W37-032,4 mg/L
